# Data from patent publication US20230054976A1, “METHODS FOR INHIBITION OF ALPHA-SYNUCLEIN mRNA USING SMALL MOLECULES” (The Scripps Research Institute, priority 2019, published 2023).
# pEC50, pKd: −log10 of the molar value. “Also recorded” adds a separate entry of the source.
# Legend:
# [1] = tested on: SH-SY5Y cells proteome; test: Proteomics profiling by mass spectrometry; type: cell-based, human; conditions: 48 h
# Description: Treatment with Synucleozid and siRNA for proteomics profiling using Mass Spectrometry. SH-SY5Y cells were cultured in 100 mm dishes to 60% confluency and treated with 1.5 μM of Synucleozid or DMSO, or transfected with 0.1 μM α-synuclein siRNA (ON-TARGETplus Human SNCA siRNA-SMARTpool) or scramble siRNA (ON-TARGETplus Non-targeting siRNA) using Lipofectamine RNAiMAX (Invitrogen) according to the manufacturer's instructions for 48 h. Cells were gently washed twice with ice-cold PBS, detached and lysed in PBS via sonication. […] Same samples were then denatured in 6 M urea in 50 mM NH4HCO3, reduced with 10 mM tris(2-carboxyethyl)phosphine hydrochloride (TCEP) for 30 min, and alkylated with 25 mM iodoacetamide for 30 min, in the dark at room temperature. Samples were diluted to 2 M urea with 50 mM NH4HCO3, and digested with trypsin (Thermo Scientific, 1.5 μL of 0.5 μg/μL) in the presence of 1 mM CaCl2 (100× stock in water). The digestion was performed for 12 h at 37° C. Samples were acidified to a final concentration of 5% acetic acid, desalted over a self-packed C18 spin column, and dried. Samples were then analyzed by LC-MS/MS (see below). The MS data were processed with MaxQuant.
# LC-MS/MS analysis. Peptides from samples described above were resuspended in water with 0.1% formic acid and analyzed using EASY-nLC 1200 nano-UHPLC coupled to Q Exactive HF-X Quadrupole-Orbitrap mass spectrometer (Thermo Scientific). The chromatography column consists 30 cm long, 75 μm i.d. microcapillary capped by a 5 μm tip and packed with ReproSil-Pur 120 C18-AQ 2.4 μm beads (Dr. Maisch GmbH). LC solvents had two buffers which were Buffer A (0.1% formic acid in H2O) and Buffer B (0.1% formic acid in 90% MeCN:10% H2O). Peptides from samples described above were eluted into the mass spectrometer at a flow rate of 300 nL/min over a 240 min linear gradient (5-35% Buffer B) at 65 C. Data-dependent mode (top-20, NCE 28, R=7500) was used to acquire data after full MS scan (R=60000, m/z 400-1300). Dynamic exclusion was 10 s. Peptide match was set to prefer. Isotope exclusion was enabled.
# MaxQuant analysis. MaxQuant (11) (V1.6.1.0) was used to analyze the mass spectrometer data. Data was searched against the human proteome (Uniprot) and a list of contaminants (included in MaxQuant). The first and main peptide search tolerance were set to 20 ppm and 10 ppm respectively. Fragment mass tolerance was set to 0.02 Da. The false discovery rate (FDR) was 1% for proteins, peptides, and sites identification. The minimum peptide length was set to 6 amino acids (AA). Peptide requantification, label-free quantification (MaxLFQ), “match between runs” were all enabled. The minimal number of peptides for every protein was set to 2. A variable modification was set to be methionine oxidation, and a fixed modification was set to be carbamidomethylation of cysteines in searches.
# [2] = tested on: SNCA mRNA; test: ASO-Bind-Map in cells (gapmer ASO, RT-qPCR); type: cell-based, human; conditions: SH-SY5Y cells, gapmer 200 nM
# Description: Mapping Synucleozid's binding site in cells with ASO-Bind-Map. SH-SY5Y cells were treated with vehicle (DMSO) or Synucleozid at 60% confluency overnight and were then transfected with a gapmer ASO (200 nM) with Lipofectamine RNAiMAX (Invitrogen) according to the manufacturer's instructions. Mock samples were generated by treating cells with transfection reagent lacking oligonucleotide. RNA extraction, cDNA synthesis and RT-qPCR were performed as described above after 48 h. Primers for SNCA mRNA in this experiment cover sequences upstream and downstream of the IRE; forward primer: [NT]; reverse primer [NT].
# [3] = tested on: control plasmid lacking 5′ UTR; test: In vitro translation assay, control lacking 5′ UTR; type: biochemical
# Description: Luciferase assay. The effect of Synucleozid treatment on translation from various IRE containing transcripts was determined using luciferase reporter assay. SH-SY5Y cells stably expressing 5' UTR were treated with Synucleozid for 48 h, washed with PBS and lysed with Passive Lysis Buffer for 15 min at room temperature. Luciferase reporter activity in each lysate was monitored using the dual luciferase reporter assay system kit (Promega. Madison, Wis., USA) according to the manufacturer's instructions. Luminescence from firefly luciferase reaction was measured using a microplate luminometer (Wallac 1420, Perkin Elmer) at 485 nm excitation and 535 nm emission wavelengths. Firefly luciferase reaction was then quenched by adding Stop & Glo reagent, and the internal fluorescence from GFP measured at the same setting was used to normalize luciferase expression. Luciferase reporter activity was expressed as percent change compared to the respective vehicle-treated control cells. In vitro translation assay. The mRNA template for in vitro translational assays was transcribed from the pIRES-Luc-EGFP-puro and pCDH-α-syn-5'-UTR-Luc-EGFP-puro plasmids by using an in vitro transcription system (RiboMax, Promega) with forward primer: [NT] and reverse primer: [NT]. […] Translation proceeded at 30° C. for 90 min, and then luminescence was measured with a Biomek FLx800 plate reader (1.0 s integration time).
# [4] = tested on: SH-SY5Y cells; test: Cell viability (MTS) assay; type: cell-based, human; conditions: 0.25, 0.5 and 1 μM, 48 h
# Description: To assess if Synucleozid has a cytotoxic effect, SH-SY5Y cells were treated with 0.25 μM to 1 μM for 48 h, and cell viability and cytotoxicity were measured using CellTiter 96 Aqueous One Solution Cell Proliferation Assay (MTS) according to the manufacturers' instructions.
# To assess if Synucleozid has a cytotoxic effect, SH-SY5Y cells were treated with 0.25, 0.5 and 1 μM for 48 h, and cell viability and cytotoxicity were measured using CellTiter 96 Aqueous One Solution Cell Proliferation Assay (MTS) and LDH release assay, respectively, according to the manufacturers' instructions.
# [5] = target: RNA-6 (A bulge mutated to U or G bulge); test: Competitive binding assay (2-AP), RNA-6
# Description: EC50 was calculated from Eq. (1).
# [6] = tested on: wild type A bulge IRE RNA; test: Thermal melting experiment, wild type IRE
# Description: Thermal melting experiment. […] The RNA was heated to 65° C. and slowly cooled to room temperature. […] The absorbance of solution was monitored at 260 nm by a Beckman Coulter DU 800 Spectrophotometer. Background of buffer or buffer plus compound was subtracted from the signal. Resulted melting curves were fitted with MeltWin v3.5 to determine ΔG°, ΔH°, ΔS°, and Tm. The melting temperature was compared to the first derivative value from the raw data for similarity.
# [7] = Synucleozid 1.5 μM vs vehicle, siRNA 0.1 μM vs scrambled control siRNA
smiles,measurement,setting,value
N=C(N)c1ccc(Nc2ccc(-c3cc4ccc(C(=N)N)cc4[nH]3)cc2)cc1 [Synucleozid A],"effect on proteins encoded by mRNAs with IREs (ACO2, NDUFS1, CDC42BPB, FTH1)",[1]; 1.5 μM,Only FTH1 was affected
same,number of proteins downregulated,[1]; [7],143
same,number of proteins with increased expression,[1]; [7],140
same,"proteins affected, percentage of detected",[1]; [7],8%
same,"proteins downregulated, % of all proteins",[1]; [7],4.3%
same,"proteins with increased expression, % of all proteins",[1]; [7],4.2%
same,number of proteins affected among 3300 detected,"[1]; Synucleozid 1.5 μM vs vehicle, siRNA 0.1 μM vs scrambled control siRNA, adjusted p-value <0.01",283
same,effect on SNCA mRNA cleavage by ASO(29-39),[2],no effect; also recorded: Protection is not observed
same,effect with the control ASO,[2],no effect
same,pEC50,[2]; read-out: EC50 for inhibition of SNCA mRNA cleavage by ASO(1-10),6.00
same,inhibitory effect on construct lacking SNCA 5′ UTR,[3],No inhibitory effect
same,cell viability (MTS),[4],no toxicity
same,cell viability (MTS),[4]; listed as Synucleozid,no effect
same,pKd,[5],~4.70
same,reduction of avidity compared to the native IRE,[5],10 fold
same,increase of Tm of wild type IRE,[6],3 °C
same,Tm of wild type IRE in presence of Synucleozid,[6]; from 51.4 without compound,54.8 °C
same,ΔG37° of wild type IRE in presence of Synucleozid,[6]; from −2.91 without compound,-3.23 kcal/mol
